According to article PMC2747480 (Journal of medicinal chemistry, 2009):
Entries after “also recorded” stand apart in the source; their conditions may differ.

Experiments:
[1] = test system: Bax/Bak double knockout MEF cells (DKO/MEFs); assay: Bax/Bak double knockout MEF cytotoxicity, FITC-Annexin V/PI assay; assay type: cell-based, mouse; conditions: 10 μM, result in words
[2] = in vitro microsomal stability; conditions: rat microsomes
[3] = chemical stability as solid powder at room temperature; assay type: physicochemical; conditions: in air, no ascorbic acid
[4] = in vitro plasma stability
[5] = result in words; cited from earlier work
GST-Mcl-1 = GST-Mcl-1 (Homo sapiens, UniProt Q07820); assay: competitive fluorescence polarization assay; assay type: binding; conditions: relative to compound 2
Sequence of GST-Mcl-1 (Q07820 whole entry): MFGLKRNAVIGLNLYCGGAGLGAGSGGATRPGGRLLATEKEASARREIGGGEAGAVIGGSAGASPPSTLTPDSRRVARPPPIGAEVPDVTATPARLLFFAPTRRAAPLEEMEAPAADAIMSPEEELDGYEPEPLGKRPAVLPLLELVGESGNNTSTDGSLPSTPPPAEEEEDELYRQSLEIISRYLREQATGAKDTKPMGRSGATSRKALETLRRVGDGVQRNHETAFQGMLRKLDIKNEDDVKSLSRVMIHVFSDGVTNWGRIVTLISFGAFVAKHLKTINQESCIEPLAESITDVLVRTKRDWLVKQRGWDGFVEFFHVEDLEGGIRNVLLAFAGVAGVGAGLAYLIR

Bfl-1 = target: T1, Bfl-1 (Homo sapiens, UniProt Q16548); assay: competitive fluorescence polarization assay; assay type: binding; conditions: relative to compound 2
T1 sequence (Q16548 1-175): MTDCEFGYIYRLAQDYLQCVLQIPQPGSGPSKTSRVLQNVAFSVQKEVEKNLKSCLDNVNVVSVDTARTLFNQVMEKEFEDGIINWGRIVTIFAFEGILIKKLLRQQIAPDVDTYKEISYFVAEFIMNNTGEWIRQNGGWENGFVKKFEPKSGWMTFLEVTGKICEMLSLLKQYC

GST-Bcl-2 = GST-Bcl-2 (Homo sapiens, UniProt P10415); assay: competitive fluorescence polarization assay; assay type: binding; conditions: relative to compound 2
Sequence of GST-Bcl-2 (P10415 whole entry): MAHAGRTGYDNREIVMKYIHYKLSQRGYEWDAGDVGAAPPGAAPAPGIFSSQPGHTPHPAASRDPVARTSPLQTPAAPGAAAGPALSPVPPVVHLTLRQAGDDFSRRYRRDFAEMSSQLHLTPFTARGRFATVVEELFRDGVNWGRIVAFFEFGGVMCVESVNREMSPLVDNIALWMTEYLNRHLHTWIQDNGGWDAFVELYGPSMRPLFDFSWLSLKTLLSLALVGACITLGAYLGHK

[6] = single dose of 100, 75, 50 and 25 mg/kg ip, 14 days, result in words
GST–Bcl-XL ΔTM protein = GST–Bcl-XL ΔTM protein (Homo sapiens, UniProt Q07817); assay: competitive fluorescence polarization assay; assay type: binding; conditions: relative to compound 2
Sequence of GST–Bcl-XL ΔTM protein (Q07817 1-209 limits assumed, stated change not applied): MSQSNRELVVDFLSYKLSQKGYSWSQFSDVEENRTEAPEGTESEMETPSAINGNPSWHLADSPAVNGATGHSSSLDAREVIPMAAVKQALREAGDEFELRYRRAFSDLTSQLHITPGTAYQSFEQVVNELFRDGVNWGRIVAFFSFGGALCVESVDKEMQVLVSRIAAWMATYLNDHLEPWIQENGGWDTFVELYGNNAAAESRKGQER

Bcl-XL = Bcl-XL (Homo sapiens, UniProt Q07817); assay: Isothermal Titration Calorimetry; assay type: binding; conditions: relative to compound 2
Sequence of Bcl-XL (Q07817 whole entry): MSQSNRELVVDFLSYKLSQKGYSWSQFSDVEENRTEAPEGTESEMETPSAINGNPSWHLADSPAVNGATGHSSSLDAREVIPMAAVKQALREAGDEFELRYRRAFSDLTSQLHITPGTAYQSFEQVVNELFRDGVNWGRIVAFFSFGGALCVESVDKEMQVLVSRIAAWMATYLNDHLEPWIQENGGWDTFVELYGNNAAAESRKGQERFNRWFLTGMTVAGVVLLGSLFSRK

Bcl-2 transgenic mice = assay: spleen weight reduction in Bcl-2 transgenic mice; assay type: in vivo, mouse; conditions: single ip injection, 72 μmol/kg, result in words
RS11846 cells = assay: RS11846 apoptosis, Annexin V-FITC and propidium iodide assay; conditions: result in words
BP3 cells = assay: BP3 cells, Annexin V-FITC and propidium iodide assay; conditions: result in words

## Cc1cc2c(C(C)C)c(O)c(O)c(C=O)c2c(O)c1-c1c(C)cc2c(C(C)C)c(O)c(O)c(C=O)c2c1O [Compound 1, 1,1′,6,6′,7,7′-Hexahydroxy-5,5′-diisopropyl-3,3′-dimethyl-2,2′-binaphthyl-8,8′-dicarboxaldehyde, reference compound]
[1]
  killing of DKO/MEFs (bax−/−bak−/− cells): equally effective in killing both wt MEFs and MEF/DKOs

## Cc1cc2c(C(C)C)c(O)c(O)cc2c(O)c1-c1c(C)cc2c(C(C)C)c(O)c(O)cc2c1O [Compound 2, 5,5′-Diisopropyl-1,1′,6,6′,7,7′-hexahydroxy-3,3′-dimethyl-2,2′-binaphthalene, reference compound]
[2]
  degraded after 1 h incubation in rat microsomal preparations: 36%
[3]
  degraded after 60 days at room temperature: ~80%
[4]
  degraded after 1 h incubation in rat plasma: 47%
[1]
  killing of DKO/MEFs (bax−/−bak−/− cells): reduced cytotoxicity against MEF/DKOs

## Cc1cc2c(C(=O)Cc3ccccc3)c(O)c(O)cc2c(O)c1-c1c(C)cc2c(C(=O)Cc3ccccc3)c(O)c(O)cc2c1O [Compound 3]
[5]
  GI toxicity in mice: mild GI toxicity

## Cc1cc2c(C(=O)NC(C)c3ccc(Cl)cc3)c(O)c(O)cc2c(O)c1-c1c(C)cc2c(C(=O)NC(C)c3ccc(Cl)cc3)c(O)c(O)cc2c1O (stereo not shown) [Compound 8k, N^5,N^5′-Bis(1-(4-chlorophenyl)ethyl)-1,1′,6,6′,7,7′-hexahydroxy-3,3′-dimethyl-2,2′-binaphthyl-5,5′-dicarboxamide]
[1]
  killing of DKO/MEFs (bax−/−bak−/− cells): ineffective

## Cc1cc2c(C(=O)NCC3CCCCC3)c(O)c(O)cc2c(O)c1-c1c(C)cc2c(C(=O)NCC3CCCCC3)c(O)c(O)cc2c1O [Compound 8m, N^5,N^5′-Bis(cyclohexylmethyl)-1,1′,6,6′,7,7′-hexahydroxy-3,3′-dimethyl-2,2′-binaphthyl-5,5′-dicarboxamide]
[2]
  degraded after 1 h incubation in rat microsomal preparations: 10%
[4]
  degraded after 1 h incubation in rat plasma: 11%
[1]
  killing of DKO/MEFs (bax−/−bak−/− cells): ineffective

## Cc1cc2c(C(=O)NCCc3cccc(Cl)c3)c(O)c(O)cc2c(O)c1-c1c(C)cc2c(C(=O)NCCc3cccc(Cl)c3)c(O)c(O)cc2c1O [Compound 8p, N^5,N^5′-Bis(3-chlorophenethyl)-1,1′,6,6′,7,7′-hexahydroxy-3,3′-dimethyl-2,2′-binaphthyl-5,5′-dicarboxamide]
[1]
  killing of DKO/MEFs (bax−/−bak−/− cells): ineffective

## CCc1ccc(CCNC(=O)c2c(O)c(O)cc3c(O)c(-c4c(C)cc5c(C(=O)NCCc6ccc(CC)cc6)c(O)c(O)cc5c4O)c(C)cc23)cc1 [Compound 8q, N^5,N^5′-Bis(4-ethylphenethyl)-1,1′,6,6′,7,7′-hexahydroxy-3,3′-dimethyl-2,2′-binaphthyl-5,5′-dicarboxamide]
[3]
  degraded after 60 days at room temperature: 10%
[1]
  killing of DKO/MEFs (bax−/−bak−/− cells): ineffective

## Cc1cc2c(C(=O)NCC(C)c3ccccc3)c(O)c(O)cc2c(O)c1-c1c(C)cc2c(C(=O)NCC(C)c3ccccc3)c(O)c(O)cc2c1O (stereo not shown) [Compound 8r, 1,1′,6,6′,7,7′-Hexahydroxy-3,3′-dimethyl-N^5,N^5′-bis(2-phenylpropyl)-2,2′-binaphthyl-5,5′-dicarboxamide]
GST-Mcl-1
  times higher potency than compound 2, FP Mcl-1: approximately 10 times
Bfl-1
  times higher potency than compound 2, FP Bfl-1: approximately 10 times
[2]
  degraded after 1 h incubation in rat microsomal preparations: 24%
GST-Bcl-2
  times higher potency than compound 2, FP Bcl-2: approximately 10 times
[3]
  degraded after 60 days at room temperature: 10%
[6]
  mortality: All mice were alive after 14 days
[4]
  degraded after 1 h incubation in rat plasma: 4%
GST–Bcl-XL ΔTM protein
  times more effective than 2, FP displacement Bcl-XL: 5 times
[1]
  killing of DKO/MEFs (bax−/−bak−/− cells): ineffective; also recorded: little cytotoxicity
Bcl-XL
  times more potent than compound 2, ITC Bcl-XL: 15 times

## Cc1cc2c(CC3CCCC3)c(O)c(O)cc2c(O)c1-c1c(C)cc2c(CC3CCCC3)c(O)c(O)cc2c1O [Compound 12c, 5,5′-Bis(cyclopentylmethyl)-3,3′-dimethyl-2,2′-binaphthyl-1,1′,6,6′,7,7′-hexaol]
Bcl-2 transgenic mice
  in vivo activity in Bcl-2 transgenic mice: lower in vivo activity

## Cc1cc2c(CCc3ccccc3)c(O)c(O)cc2c(O)c1-c1c(C)cc2c(CCc3ccccc3)c(O)c(O)cc2c1O [Compound 12e, 3,3′-Dimethyl-5,5′-diphenethyl-2,2′-binaphthyl-1,1′,6,6′,7,7′-hexaol]
Bcl-2 transgenic mice
  in vivo activity in Bcl-2 transgenic mice: lower in vivo activity

## Cc1cc2cc(O)c(O)cc2c(O)c1-c1c(C)cc2cc(O)c(O)cc2c1O [Compound 13, 3,3′-Dimethyl-2,2′-binaphthyl-1,1′,6,6′,7,7′-hexaol]
RS11846 cells
  induction of apoptosis of the RS11846 cell line: little or no apoptosis

## Cc1cc2c(C(=O)O)c(O)c(O)cc2c(O)c1-c1c(C)cc2c(C(=O)O)c(O)c(O)cc2c1O [Compound 14, 1,1′,6,6′,7,7′-Hexahydroxy-3,3′-dimethyl-2,2′-binaphthyl-5,5′-dicarboxylic acid]
RS11846 cells
  induction of apoptosis of the RS11846 cell line: little or no apoptosis

## CN(C)CC[C@H](CSc1ccccc1)Nc1ccc(S(=O)(=O)NC(=O)c2ccc(N3CCN(Cc4ccccc4-c4ccc(Cl)cc4)CC3)cc2)cc1[N+](=O)[O-] [Compound 15]
BP3 cells
  cytotoxic activity against BP3 cell lines: no cytotoxic activity
